“And” between values parts separate entries of the source, which are not always exact repeats. Equal values may be shown once. “Also recorded” adds a separate entry of the source. Read-outs that look alike come from different tables or passages of the source.
Key:
B16 melanoma = assay: murine B16 melanoma antitumor activity
Excerpt: Activity against the murine B16 melanoma is currently being determined.

[1] = toxic single doses in normal CD2F1 mice; conditions: for Deaths due to drug toxicity: up to 45 days
Protocol: Drug was administered intraperitoneally (i.p.) in a volume of 0.1 ml per 10 grams body weight.

Ehrlich ascites = assay: murine Ehrlich ascites antitumor activity; assay type: in vivo
Protocol: The antitumor activity of M-TAG for the murine Ehrlich ascities tumor was also determined. Ehrlich ascites was maintained i.p. in female BALB/C mice. For antitumor studies, 1×10^7 Ehrlich ascites cells (in 0.10 ml) were implanted i.p. in male BD2F1 mice. Drug was administered i.p. (single LD10 dose) one day after tumor implantation.

[2] = tested on: peripheral leukocyte (WBC); assay: effects on peripheral leukocyte (WBC) count; assay type: in vivo, mice; conditions: LD10-range dose i.p., days 3, 4, 5, 6 and 10
Protocol: Comparative studies were performed with M-TAG and mitomycin C. Drug was dissolved in absolute ethanol, and then adjusted to a final concentration of 8% ethanol-92% sterile water. Blood samples obtained were diluted in 9.98 ml of Isoton (a neutral isotonic buffer solution) and counted in a Coulter counter after lysis with Zapoglobin (an enzyme solution which lyses red blood cells but not white blood cells). WBC counts are expressed as a percentage of values from control mice receiving drug vehicle only.

E. coli WP2s (λ) = conditions: for Induction of prophage, PFU/DISH: 24 hours
Staphylococcus Sp. = assay: antibiotic activity, bacterial growth inhibition in culture; assay type: cell-based
Protocol: (§1) Bacteria were grown in a standard growth culture at pH 7.2. After the cultures were incubated at 37° C. overnight and diluted into fresh medium, controls and the test antibiotics dissolved in 0.3% hydroxy propylcellulose (HPC) were added at various concentrations and then reincubated overnight. The measure of antibiotic activity was determined by the amount of bacterial growth inhibition as shown by measurement of the optical density at 660 nm.

WP2s (E. coli) = assay: as above; assay type: cell-based
Protocol: as §1

Listeria Sp. = assay: as above; assay type: cell-based
Protocol: as §1

CO[C@@]12[C@H](COC(N)=O)C3=C(C(=O)C(C)=C(N)C3=O)N1C[C@H]1[C@@H]2N1C(=S)N[C@@H]1O[C@H](COC(C)=O)[C@@H](OC(C)=O)[C@H](OC(C)=O)[C@H]1NC(C)=O [M-TAG, 1a(N-2-acetamido-3,4,6-tri-O-acetyl-2-deoxy-D-glucopyranosylthiocarbamoyl)-mitomycin C]
mice alive on day 20 (B16 melanoma; M-TAG 250 mg/kg or mitomycin C 4 mg/kg, i.p. day 1): 6 out of 10
mice alive on day 10 (B16 melanoma; M-TAG 250 mg/kg or mitomycin C 4 mg/kg, i.p. day 1, all vehicle-control mice died): All
antitumor activity against murine B16 melanoma (in words) (B16 melanoma; mouse, in vivo): significant antitumor activity
Deaths due to drug toxicity ([1]; 250 mg/kg, single i.p. dose): 0/10
Deaths due to drug toxicity ([1]; 275 mg/kg, single i.p. dose): 1/10
Deaths due to drug toxicity ([1]; 300 mg/kg, single i.p. dose): 3/10
difference in LD10 dose in mice relative to mitomycin C ([1]; molar basis): 30-40 fold
approximate LD10 dose (molar) ([1]; single i.p. dose): ~346 µmol/kg
LD10 dose ([1]; single i.p. dose toxic to 10% of normal mice): 275 mg/kg and 250 to 275 mg/kg and ~250 mg/kg
antitumor activity against murine Ehrlich ascites (in words) (Ehrlich ascites; mouse, in vivo): significant antitumor activity
% ILS (Ehrlich ascites; single approximate LD10 dose i.p. (M-TAG 250 mg/kg; mitomycin C 4 mg/kg), one day after implantation): 66%
Mean Survival (Ehrlich ascites; single approximate LD10 dose i.p., 250 mg/kg): 22.8 days
WBC depression / myelotoxicity (in words) [2]: no significant depression in WBC counts at all days tested; also recorded: no significant myelotoxicity as measured by WBC depression
maximum increase of phage titer over control (E. coli WP2s (λ)): 50-100%
Induction of prophage, PFU/DISH (E. coli WP2s (λ); 0.005 ug/ml): 148.5 PFU/DISH
Induction of prophage, PFU/DISH (E. coli WP2s (λ); 0.020 ug/ml): 152.5 PFU/DISH
Induction of prophage, PFU/DISH (E. coli WP2s (λ); 0.03125 ug/ml): 591.5 PFU/DISH
Induction of prophage, PFU/DISH (E. coli WP2s (λ); 0.125 ug/ml): 799.5 PFU/DISH
Induction of prophage, PFU/DISH (E. coli WP2s (λ); 0.500 ug/ml): 2535.0 PFU/DISH
Induction of prophage, PFU/DISH (E. coli WP2s (λ); 2.000 ug/ml): 5395.0 PFU/DISH
Induction of prophage, PFU/DISH (E. coli WP2s (λ); 3.125 ug/ml): 3516.5 PFU/DISH
Induction of prophage, PFU/DISH (E. coli WP2s (λ); 12.500 ug/ml): 461.5 PFU/DISH
Induction of prophage, PFU/DISH (E. coli WP2s (λ); 50.000 ug/ml): 169.0 PFU/DISH
Induction of prophage, PFU/DISH (E. coli WP2s (λ); 200.000 ug/ml): 14.5 PFU/DISH
optical density at 660 nm (figure in parentheses) (Staphylococcus Sp.; 0.04 mcg/ml): 0.52
optical density at 660 nm (figure in parentheses) (Staphylococcus Sp.; 0.4 mcg/ml): 0.02
optical density at 660 nm (figure in parentheses) (Staphylococcus Sp.; 4.0 mcg/ml): 0.018
optical density at 660 nm (figure in parentheses) (Staphylococcus Sp.; 40 mcg/ml): 0.03
optical density at 660 nm (figure in parentheses) (Staphylococcus Sp.; 400 mcg/ml): 0.00
inhibition at 0.04 µg/mL (Staphylococcus Sp.; Staphylococcus, 0.04 mcg/ml, 37° C. overnight, read-out: amount of bacterial growth inhibition (first figure)): 30%
inhibition at 0.4 µg/mL (Staphylococcus Sp.; Staphylococcus, 0.4 mcg/ml, 37° C. overnight, read-out: amount of bacterial growth inhibition (first figure)): 95%
inhibition at 4 µg/mL (Staphylococcus Sp.; Staphylococcus, 4.0 mcg/ml, 37° C. overnight, read-out: amount of bacterial growth inhibition (first figure)): 96%
inhibition at 40 µg/mL (Staphylococcus Sp.; Staphylococcus, 40 mcg/ml, 37° C. overnight, read-out: amount of bacterial growth inhibition (first figure)): 94%
inhibition at 400 µg/mL (Staphylococcus Sp.; Staphylococcus, 400 mcg/ml, 37° C. overnight, read-out: amount of bacterial growth inhibition (first figure)): 100%
optical density at 660 nm (figure in parentheses) (WP2s (E. coli); 0.04 mcg/ml): 0.41
optical density at 660 nm (figure in parentheses) (WP2s (E. coli); 0.4 mcg/ml): 0.29
optical density at 660 nm (figure in parentheses) (WP2s (E. coli); 4.0 mcg/ml): 0.30
optical density at 660 nm (figure in parentheses) (WP2s (E. coli); 40 mcg/ml): 0.12
optical density at 660 nm (figure in parentheses) (WP2s (E. coli); 400 mcg/ml): 0.009
inhibition at 0.04 µg/mL (WP2s (E. coli); Escherichia coli, 0.04 mcg/ml, 37° C. overnight, read-out: amount of bacterial growth inhibition (first figure)): 39%
inhibition at 0.4 µg/mL (WP2s (E. coli); Escherichia coli, 0.4 mcg/ml, 37° C. overnight, read-out: amount of bacterial growth inhibition (first figure)): 51%
inhibition at 4 µg/mL (WP2s (E. coli); Escherichia coli, 4.0 mcg/ml, 37° C. overnight, read-out: amount of bacterial growth inhibition (first figure)): 50%
inhibition at 40 µg/mL (WP2s (E. coli); Escherichia coli, 40 mcg/ml, 37° C. overnight, read-out: amount of bacterial growth inhibition (first figure)): 76%
inhibition at 400 µg/mL (WP2s (E. coli); Escherichia coli, 400 mcg/ml, 37° C. overnight, read-out: amount of bacterial growth inhibition (first figure)): 98%
optical density at 660 nm (figure in parentheses) (Listeria Sp.; 0.04 mcg/ml): 0.59
optical density at 660 nm (figure in parentheses) (Listeria Sp.; 0.4 mcg/ml): 0.59
optical density at 660 nm (figure in parentheses) (Listeria Sp.; 4.0 mcg/ml): 0.59
optical density at 660 nm (figure in parentheses) (Listeria Sp.; 40 mcg/ml): 0.036
optical density at 660 nm (figure in parentheses) (Listeria Sp.; 400 mcg/ml): 0.00
inhibition at 0.04 µg/mL (Listeria Sp.; Listeria, 0.04 mcg/ml, 37° C. overnight, read-out: amount of bacterial growth inhibition (first figure)): 26%
inhibition at 0.4 µg/mL (Listeria Sp.; Listeria, 0.4 mcg/ml, 37° C. overnight, read-out: amount of bacterial growth inhibition (first figure)): 26%
